# Data reported in ChEMBL document CHEMBL1828557, “Biophysical and physicochemical methods differentiate highly ligand-efficient human D-amino acid oxidase inhibitors” (Eur J Med Chem, 2011).
# Key:
# D-aspartate oxidase = molecular target: T1, D-aspartate oxidase (Bos taurus, UniProt P31228); assay: Inhibition of bovine recombinant DASPO expressed in Escherichia coli preincubated for 15 mins by fluorescence assay
# T1 sequence (P31228 whole entry): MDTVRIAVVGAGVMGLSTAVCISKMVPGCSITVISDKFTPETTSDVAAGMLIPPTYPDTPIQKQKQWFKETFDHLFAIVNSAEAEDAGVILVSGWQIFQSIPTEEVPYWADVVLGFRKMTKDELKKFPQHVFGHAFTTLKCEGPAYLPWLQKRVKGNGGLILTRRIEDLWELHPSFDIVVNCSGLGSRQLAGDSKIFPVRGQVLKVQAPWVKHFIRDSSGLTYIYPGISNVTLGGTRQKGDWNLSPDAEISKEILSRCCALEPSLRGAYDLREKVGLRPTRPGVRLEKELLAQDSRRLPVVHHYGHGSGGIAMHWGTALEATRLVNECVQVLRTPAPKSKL
# [1] = molecular target: Voltage-gated inwardly rectifying potassium channel KCNH2 (Homo sapiens, UniProt Q12809); assay: Inhibition of human ERG expressed in HEK293 cells by whole cell voltage patch clamp technique; assay type: cell-based
# [2] = Dissociation constant, pKa of the compound by dip probe absorption spectroscopy technique; assay type: physicochemical
# [3] = Octanol-water partition coefficient, log P of the neutral compound by pH-metric method; assay type: physicochemical
# [4] = Thermodynamic solubility of the compound in phosphate buffer at pH 7.4 after 24 hrs by HPLC analysis; assay type: physicochemical; conditions: read-out: Therm_solubility
# [5] = Kinetic solubility of the compound in 0.01 M phosphate buffered saline at pH 7.4 assessed as minimum solubility after 2 hrs; assay type: physicochemical; conditions: read-out: Kinetic_solubility
# [6] = Kinetic solubility of the compound in 0.01 M phosphate buffered saline at pH 7.4 assessed as maximum solubility after 2 hrs; assay type: physicochemical; conditions: read-out: Kinetic_solubility
# [7] = Cmax in Wistar rat brain at 10 mg/kg, po; assay type: ADME, organism-based; set-up: dose 10 mg/kg, route oral
# [8] = Cmax in Swiss mouse brain at 10 mg/kg, po; assay type: ADME, organism-based; set-up: dose 10 mg/kg, route oral
# Brain [9] = assay: AUC (0 to last) in Wistar rat brain at 10 mg/kg, po; assay type: ADME, organism-based; set-up: dose 10 mg/kg, route oral, time 0 - last; conditions: in vivo
# Brain [10] = assay: AUC (0 to last) in Swiss mouse brain at 10 mg/kg, po; assay type: ADME, organism-based; set-up: time 0 - last, dose 10 mg/kg, route oral; conditions: in vivo
# [11] = Ratio of drug level (0 to last) in brain to plasma in Wistar rat at 10 mg/kg, po; assay type: ADME, organism-based; set-up: dose 10 mg/kg, route oral; conditions: brain and plasma, read-out: BPR
# [12] = Ratio of drug level (0 to last) in brain to plasma in Swiss mouse at 10 mg/kg, po; assay type: ADME, organism-based; set-up: dose 10 mg/kg, route oral; conditions: brain and plasma, read-out: BPR
# [13] = Oral bioavailability (0 to last) in Wistar rat plasma at 10 mg/kg; assay type: ADME, organism-based
# [14] = Oral bioavailability (0 to last) in Swiss mouse plasma at 10 mg/kg; assay type: ADME, organism-based
# [15] = Tmax in Wistar rat brain at 10 mg/kg, po; assay type: ADME, organism-based; set-up: dose 10 mg/kg, route oral
# [16] = Tmax in Swiss mouse brain at 10 mg/kg, po; assay type: ADME, organism-based; set-up: dose 10 mg/kg, route oral
# [17] = Terminal half life in Wistar rat brain at 10 mg/kg, po; assay type: ADME, organism-based; set-up: dose 10 mg/kg, route oral; conditions: read-out: beta t1/2 (converted)
# [18] = Terminal half life in Swiss mouse brain at 10 mg/kg, po; assay type: ADME, organism-based; set-up: dose 10 mg/kg, route oral; conditions: read-out: beta t1/2 (converted)
# [19] = Volume of distribution in Wistar rat plasma at 1 mg/kg, iv; assay type: ADME, organism-based; set-up: dose 1 mg/kg, route intravenous
# [20] = Volume of distribution in Swiss mouse plasma at 1 mg/kg, iv; assay type: ADME, organism-based; set-up: dose 1 mg/kg, route intravenous
# [21] = Plasma clearance in Wistar rat plasma at 1 mg/kg, iv; assay type: ADME, organism-based; set-up: dose 1 mg/kg, route intravenous
# [22] = Plasma clearance in Swiss mouse plasma at 1 mg/kg, iv; assay type: ADME, organism-based; set-up: dose 1 mg/kg, route intravenous
# D-amino-acid oxidase [23] = molecular target: T2, D-amino-acid oxidase (Homo sapiens, UniProt P14920)
# Target sequence in this assay (P14920 whole entry, looked up): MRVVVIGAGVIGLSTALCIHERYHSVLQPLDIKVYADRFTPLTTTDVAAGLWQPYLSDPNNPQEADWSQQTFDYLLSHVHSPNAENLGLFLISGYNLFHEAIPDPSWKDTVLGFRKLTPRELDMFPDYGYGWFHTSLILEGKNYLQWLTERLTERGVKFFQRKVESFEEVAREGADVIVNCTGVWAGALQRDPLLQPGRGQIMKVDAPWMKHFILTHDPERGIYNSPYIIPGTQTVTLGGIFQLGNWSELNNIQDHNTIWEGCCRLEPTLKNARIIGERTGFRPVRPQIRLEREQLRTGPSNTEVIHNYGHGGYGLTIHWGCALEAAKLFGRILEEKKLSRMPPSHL
# [24] = Apparent permeability across apical to basolateral side in human Caco2 cells by LC-MS/MS analysis; assay type: ADME, cell-based; conditions: Caco-2
# [25] = Apparent permeability from apical to basolateral side of MDCK cells expressing MDR1 by LC-MS/MS analysis; assay type: ADME, cell-based, Canis lupus familiaris; conditions: dog
# [26] = Intrinsic clearance in human liver microsomes; assay type: ADME, Microsome
# D-amino-acid oxidase [27] = molecular target: T2, D-amino-acid oxidase; assay: Inhibition of human recombinant DAAO expressed in Escherichia coli assessed as H2O2 production from D-serine degradation after 30 mins by fluorescence assay
# Target sequence in this assay (P14920 whole entry): as the sequence (P14920 whole entry, looked up) above
# D-amino-acid oxidase [28] = molecular target: T2, D-amino-acid oxidase; assay: Inhibition of human DAAO
# Target sequence in this assay (P14920 whole entry): as the sequence (P14920 whole entry, looked up) above
# D-amino-acid oxidase [29] = molecular target: T2, D-amino-acid oxidase; assay: Binding affinity to human recombinant DAAO by isothermal titration calorimeter analysis
# Target sequence in this assay (P14920 whole entry): as the sequence (P14920 whole entry, looked up) above
# D-amino-acid oxidase [30] = molecular target: T2, D-amino-acid oxidase; assay: Binding affinity to human recombinant DAAO by kinetic study scintillation proximity assay
# Target sequence in this assay (P14920 whole entry): as the sequence (P14920 whole entry, looked up) above
# [31] = Cmax in Wistar rat brain at 30 mg/kg, po; assay type: ADME, organism-based; set-up: dose 30 mg/kg, route oral
# [32] = Cmax in Swiss mouse brain at 30 mg/kg, po; assay type: ADME, organism-based; set-up: dose 30 mg/kg, route oral
# Brain [33] = assay: AUC (0 to last) in Wistar rat brain at 30 mg/kg, po; assay type: ADME, organism-based; set-up: time 0 - last, dose 30 mg/kg, route oral; conditions: in vivo
# Brain [34] = assay: AUC (0 to last) in Swiss mouse brain at 30 mg/kg, po; assay type: ADME, organism-based; set-up: time 0 - last, dose 30 mg/kg, route oral; conditions: in vivo
# [35] = Ratio of drug level (0 to last) in brain to plasma in Wistar rat at 30 mg/kg, po; assay type: ADME, organism-based; set-up: dose 30 mg/kg, route oral; conditions: brain and plasma, read-out: BPR
# [36] = Ratio of drug level (0 to last) in brain to plasma in Swiss mouse at 30 mg/kg, po; assay type: ADME, organism-based; set-up: dose 30 mg/kg, route oral; conditions: brain and plasma, read-out: BPR
# [37] = Oral bioavailability (0 to last) in Wistar rat plasma at 30 mg/kg; assay type: ADME, organism-based
# [38] = Oral bioavailability (0 to last) in Swiss mouse plasma at 30 mg/kg; assay type: ADME, organism-based
# [39] = Tmax in Wistar rat brain at 30 mg/kg, po; assay type: ADME, organism-based; set-up: dose 30 mg/kg, route oral
# [40] = Tmax in Swiss mouse brain at 30 mg/kg, po; assay type: ADME, organism-based; set-up: dose 30 mg/kg, route oral
# [41] = Terminal half life in Wistar rat brain at 30 mg/kg, po; assay type: ADME, organism-based; set-up: dose 30 mg/kg, route oral; conditions: read-out: beta t1/2 (converted)
# [42] = Terminal half life in Swiss mouse brain at 30 mg/kg, po; assay type: ADME, organism-based; set-up: dose 30 mg/kg, route oral; conditions: read-out: beta t1/2 (converted)
# [43] = Volume of distribution in Wistar rat plasma at 10 mg/kg, iv; assay type: ADME, organism-based; set-up: dose 10 mg/kg, route intravenous
# [44] = Volume of distribution in Swiss mouse plasma at 10 mg/kg, iv; assay type: ADME, organism-based; set-up: dose 10 mg/kg, route intravenous
# [45] = Plasma clearance in Wistar rat plasma at 10 mg/kg, iv; assay type: ADME, organism-based; set-up: dose 10 mg/kg, route intravenous
# [46] = Plasma clearance in Swiss mouse plasma at 10 mg/kg, iv; assay type: ADME, organism-based; set-up: dose 10 mg/kg, route intravenous
# Sequence of Voltage-gated inwardly rectifying potassium channel KCNH2 (Q12809 whole entry): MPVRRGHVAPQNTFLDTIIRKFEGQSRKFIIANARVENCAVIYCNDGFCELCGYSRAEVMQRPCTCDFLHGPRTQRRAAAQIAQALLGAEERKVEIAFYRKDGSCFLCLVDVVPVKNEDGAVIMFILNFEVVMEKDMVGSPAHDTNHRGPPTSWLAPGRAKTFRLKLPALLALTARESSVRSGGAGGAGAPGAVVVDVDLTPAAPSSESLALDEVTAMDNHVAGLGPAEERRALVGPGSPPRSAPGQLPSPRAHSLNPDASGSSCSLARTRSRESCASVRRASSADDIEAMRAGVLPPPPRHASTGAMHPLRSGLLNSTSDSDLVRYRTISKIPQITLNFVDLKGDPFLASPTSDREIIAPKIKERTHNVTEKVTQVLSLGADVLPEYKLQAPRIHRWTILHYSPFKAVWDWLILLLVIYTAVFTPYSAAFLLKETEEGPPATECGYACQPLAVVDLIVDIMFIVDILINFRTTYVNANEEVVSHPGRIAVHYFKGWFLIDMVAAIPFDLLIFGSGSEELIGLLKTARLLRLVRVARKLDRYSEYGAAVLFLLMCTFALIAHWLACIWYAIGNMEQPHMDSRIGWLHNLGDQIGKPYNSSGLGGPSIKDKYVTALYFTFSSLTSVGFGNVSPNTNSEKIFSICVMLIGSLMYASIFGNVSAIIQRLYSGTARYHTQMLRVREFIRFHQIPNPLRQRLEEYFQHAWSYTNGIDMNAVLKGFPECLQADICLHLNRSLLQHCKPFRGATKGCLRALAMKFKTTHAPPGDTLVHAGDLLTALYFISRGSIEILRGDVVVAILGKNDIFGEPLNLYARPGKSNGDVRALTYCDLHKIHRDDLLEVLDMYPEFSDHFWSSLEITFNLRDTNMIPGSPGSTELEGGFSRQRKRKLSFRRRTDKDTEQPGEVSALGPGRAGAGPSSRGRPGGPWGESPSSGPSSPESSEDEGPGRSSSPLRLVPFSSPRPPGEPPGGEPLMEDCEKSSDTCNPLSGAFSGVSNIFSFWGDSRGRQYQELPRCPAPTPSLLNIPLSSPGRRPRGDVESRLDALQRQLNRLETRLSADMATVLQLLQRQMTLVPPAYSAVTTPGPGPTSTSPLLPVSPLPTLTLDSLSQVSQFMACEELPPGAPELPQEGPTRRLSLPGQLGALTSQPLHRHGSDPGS
Compound,IC50 (D-aspartate oxidase),IC50 [1],pKa [2],logP [3],solubility thermodynamic at 24 h [4],solubility kinetic at 2 h [5],solubility kinetic at 2 h [6],Cmax [7],Cmax [8],AUClast (Brain [9]),AUClast (Brain [10]),Kp [11],Kp [12],bioavailability [13],bioavailability [14],Tmax [15],Tmax [16],half-life [17],half-life [18],Vd [19],also measured
O=C(O)c1cc2occc2[nH]1,> 10000 nM,> 10000 nM,4.09,1.56,428 µM,100 µM,> 100 µM,889 ng/mL,487 ng/mL,1520 ng·h/mL,371 ng·h/mL,0.08,0.08,52%,42%,30 min,15 min,120 min,30 min,0.4 L/kg,Vd [20]: 0.8 L/kg; clearance [21]: 4 mL/min/kg; clearance [22]: 15 mL/min/kg; T1/2 (D-amino-acid oxidase [23]): 10 min
Oc1noc2cc(Cl)ccc12,> 10000 nM,> 10000 nM,4.07,2.68,433 µM,100 µM,> 100 µM,319 ng/mL,228 ng/mL,340 ng·h/mL,139 ng·h/mL,0.04,0.03,28%,29%,30 min,15 min,120 min,60 min,0.3 L/kg,Papp A→B [24]: 77 ×10⁻⁶ cm/s; Papp A→B [25]: 75 ×10⁻⁶ cm/s; microsomal CLint [26]: 4.7 µL/min/mg; Vd [20]: 0.2 L/kg; clearance [21]: 5 mL/min/kg; clearance [22]: 10 mL/min/kg; T1/2 (D-amino-acid oxidase [23]): 10 min
Cc1cc(C(=O)O)n[nH]1,> 10000 nM,–,3.59,0.45,> 460 µM,100 µM,> 100 µM,–,–,–,–,–,–,–,–,–,–,–,–,–,IC50 (D-amino-acid oxidase [27]): 473 nM; IC50 (D-amino-acid oxidase [28]): 910 nM; Kd (D-amino-acid oxidase [29]): 617 nM; Kd (D-amino-acid oxidase [30]): 900 nM; Cmax [31]: 112 ng/mL; Cmax [32]: 359 ng/mL; AUClast (Brain [33]): 631 ng·h/mL; AUClast (Brain [34]): 831 ng·h/mL; Kp [35]: 0.04; Kp [36]: 0.1; bioavailability [37]: 97%; bioavailability [38]: 33%; Tmax [39]: 60 min; Tmax [40]: 30 min; half-life [41]: 180 min; half-life [42]: 60 min; Vd [43]: 3.5 L/kg; Vd [44]: 0.4 L/kg; clearance [45]: 11 mL/min/kg; clearance [46]: 10 mL/min/kg
